According to ChEMBL document CHEMBL1121784, “Quantitative structure-activity relationships by distance geometry: thyroxine binding site” (J Med Chem, 1981):

What follows are compounds tested against Transthyretin (Homo sapiens) (UniProt P02766) (assay: Binding affinity against prealbumin).

**Q.** Which Delta G does the source give for `CCc1cc(C)c(Oc2cc(C)c(CC(N)C(=O)O)c(C)c2I)c(C)c1I` (stereo unspecified) here?
**A.** -7.6 kcal/M

**Q.** With `CCc1cc(C)c(Oc2c(I)c(C)c(CC(N)C(=O)O)c(C)c2I)c(C)c1I` (stereo in doubt; 1) as the compound, how does the Delta G read?
**A.** -9.2 kcal/M

**Q.** For `CCc1c(C)c(C)c(Oc2c(I)c(C)c(CC(N)C(=O)O)c(C)c2I)c(C)c1C` (stereo unspecified), which Delta G is on record?
**A.** -6.6 kcal/M

**Q.** How did the Delta G turn out when `CCc1c(I)c(C)c(Oc2cc(C)c(CC(N)C(=O)O)c(C)c2I)c(C)c1I` (stereo unspecified) was run?
**A.** -10 kcal/M

**Q.** With `CCc1cc(C)c(Oc2c(I)c(C)c(CC(N)C(=O)O)c(C)c2I)c(C)c1CC(C)C` (stereo unspecified) as the compound, how does the Delta G read?
**A.** -8.4 kcal/M

**Q.** With `CCc1c(I)c(C)c(Oc2c(I)c(C)c(CC(=O)O)c(C)c2I)c(C)c1I` as the compound, how does the Delta G read?
**A.** -11.9 kcal/M

**Q.** Which Delta G does the source give for `CCc1c(I)c(C)c(Oc2c(I)c(C)c(CC(N)C(=O)O)c(C)c2I)c(C)c1I` (stereo in doubt; 26) here?
**A.** -8.7 kcal/M

**Q.** `CCc1cc(C)c(Oc2c(I)c(C)c(CC(=O)O)c(C)c2I)c(C)c1I` was tested. Which Delta G did it give?
**A.** -9.7 kcal/M

**Q.** How did the Delta G turn out when `CCc1cc(C)c(Oc2cc(C)c(CC(N)C(=O)O)c(C)c2I)c(C)c1` (stereo unspecified) was run?
**A.** -5.2 kcal/M

**Q.** `CCc1c(I)c(C)c(Oc2c(I)c(C)c(CCN)c(C)c2I)c(C)c1I` was tested. Which Delta G did it give?
**A.** -9.7 kcal/M

**Q.** With `CCc1cc(C)c(Oc2c(I)c(C)c(CC(N)C(=O)O)c(C)c2I)c(C)c1Br` (stereo unspecified) as the compound, how does the Delta G read?
**A.** -8.2 kcal/M

**Q.** How did the Delta G turn out when `CCc1c(I)c(C)c(Oc2c(I)c(C)c(CCCC(=O)O)c(C)c2I)c(C)c1I` was run?
**A.** -11.3 kcal/M

**Q.** `CCc1cc(C)c(Oc2c(I)c(C)c(CC(N)C(=O)O)c(C)c2I)c(C)c1C(C)C` (stereo unspecified) was tested. Which Delta G did it give?
**A.** -7.8 kcal/M

**Q.** For `CCc1cc(C)c(Oc2c(I)c(C)c(CC(N)C(=O)O)c(C)c2I)c(C)c1C(C)(C)C` (stereo unspecified), which Delta G is on record?
**A.** -8 kcal/M

**Q.** Which Delta G does the source give for `CCc1c(I)c(C)c(Oc2c(I)c(C)c(CC(N)C(=O)O)c(C)c2I)c(C)c1I` (stereo in doubt; 2) here?
**A.** -10.7 kcal/M

**Q.** `CCc1cc(C)c(Oc2c(I)c(C)c(CC(N)C(=O)O)c(C)c2I)c(C)c1` (stereo unspecified) was tested. Which Delta G did it give?
**A.** -7.1 kcal/M

**Q.** For `CCc1cc(C)c(Oc2c(I)c(C)c(CC(N)C(=O)O)c(C)c2I)c(C)c1C` (stereo unspecified), which Delta G is on record?
**A.** -7.4 kcal/M

**Q.** How did the Delta G turn out when `CCc1cc(C)c(Oc2c(C)c(C)c(CC(N)C(=O)O)c(C)c2C)c(C)c1I` (stereo unspecified) was run?
**A.** -7.8 kcal/M

**Q.** For `CCc1c(I)c(C)c(Oc2c(C)c(C)c(CC(N)C(=O)O)c(C)c2C)c(C)c1I` (stereo unspecified), which Delta G is on record?
**A.** -7.7 kcal/M

**Q.** How did the Delta G turn out when `CCc1cc(C)c(Oc2c(I)c(C)c(CC(N)C(=O)O)c(C)c2I)c(C)c1I` (stereo in doubt; 21) was run?
**A.** -7 kcal/M

**Q.** How did the Delta G turn out when `CCc1cc(C)c(Oc2c(I)c(C)c(CC(N)C(=O)O)c(C)c2I)c(C)c1Cl` (stereo unspecified) was run?
**A.** -7.7 kcal/M

**Q.** With `CCc1c(I)c(C)c(Oc2c(I)c(C)c(CCC(=O)O)c(C)c2I)c(C)c1I` as the compound, how does the Delta G read?
**A.** -11.4 kcal/M

**Q.** How did the Delta G turn out when `CCCc1c(CC)cc(C)c(Oc2c(I)c(C)c(CC(N)C(=O)O)c(C)c2I)c1C` (stereo unspecified) was run?
**A.** -7.6 kcal/M

**Q.** `CCc1cc(C)c(Oc2c(I)c(C)c(CC(N)C(=O)O)c(C)c2I)c(C)c1C(C)CC` (stereo unspecified) was tested. Which Delta G did it give?
**A.** -9 kcal/M

**Q.** Which Delta G does the source give for `CCc1c(Br)c(C)c(Oc2c(I)c(C)c(CC(N)C(=O)O)c(C)c2I)c(C)c1Br` (stereo unspecified) here?
**A.** -9.2 kcal/M

**Q.** Which Delta G does the source give for `CCc1c(I)c(C)c(Oc2c(I)c(C)c(C(=O)O)c(C)c2I)c(C)c1I` here?
**A.** -11.1 kcal/M
